# Assay results published in ChEMBL document CHEMBL1139593, “Synthesis and biological evaluation of chromone carboxamides as calpain inhibitors” (Bioorg Med Chem Lett, 2005).
# Square brackets hold non-standard residues; d marks the D form. Peptide text beside a SMILES is read from it. * marks the point of attachment. ξ: configuration not given here. ξF = NC(Cc1ccccc1)C(=O)O; Cbz = O=C(OCc1ccccc1)*
# Tests used:
# Cathepsin B (Bos taurus) [1] = molecular target: Cathepsin B (Bos taurus) (UniProt P07688); assay: Percent inhibition of bovine cathepsin B at 0.2 uM
# [2] = molecular target: T1, Calpain-1 catalytic subunit (Homo sapiens, UniProt P07384); assay: Inhibitory concentration against human plasma mu-calpain; type: cell-free
# T1 sequence (P07384 whole entry): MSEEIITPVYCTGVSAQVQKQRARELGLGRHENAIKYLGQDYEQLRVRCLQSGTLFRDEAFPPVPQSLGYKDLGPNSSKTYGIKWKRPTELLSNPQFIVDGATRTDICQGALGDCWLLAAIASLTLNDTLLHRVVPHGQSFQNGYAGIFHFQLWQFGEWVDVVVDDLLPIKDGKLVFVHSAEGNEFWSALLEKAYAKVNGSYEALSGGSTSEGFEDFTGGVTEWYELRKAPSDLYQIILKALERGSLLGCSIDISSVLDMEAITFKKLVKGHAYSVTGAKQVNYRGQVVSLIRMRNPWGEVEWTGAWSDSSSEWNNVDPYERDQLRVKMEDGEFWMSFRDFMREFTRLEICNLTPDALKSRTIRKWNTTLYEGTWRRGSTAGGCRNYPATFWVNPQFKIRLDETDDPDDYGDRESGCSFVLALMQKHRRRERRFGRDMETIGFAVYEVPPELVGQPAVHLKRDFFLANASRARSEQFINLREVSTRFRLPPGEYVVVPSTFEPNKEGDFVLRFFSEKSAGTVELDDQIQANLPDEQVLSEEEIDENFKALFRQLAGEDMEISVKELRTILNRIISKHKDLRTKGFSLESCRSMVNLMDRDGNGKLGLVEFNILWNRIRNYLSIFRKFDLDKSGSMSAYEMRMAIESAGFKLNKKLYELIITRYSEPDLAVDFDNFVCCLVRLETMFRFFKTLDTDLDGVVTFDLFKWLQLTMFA
# [3] = molecular target: Procathepsin L (Homo sapiens) (UniProt P07711); assay: Percent inhibition of human liver cathepsin L at 0.2 uM
# [4] = molecular target: Procathepsin L (Homo sapiens) (UniProt P07711); assay: Percent inhibition of human liver cathepsin L at 20 uM
# Cathepsin B (Bos taurus) [5] = molecular target: Cathepsin B (Bos taurus) (UniProt P07688); assay: Percent inhibition of bovine cathepsin B at 20 uM
# [6] = molecular target: Procathepsin L (Homo sapiens) (UniProt P07711); assay: Percent inhibition of human liver cathepsin L at 2 uM
# Cathepsin B (Bos taurus) [7] = molecular target: Cathepsin B (Bos taurus) (UniProt P07688); assay: Percent inhibition of bovine cathepsin B at 2 uM
# Sequence of Procathepsin L (Homo sapiens) (P07711 114-333 limits assumed): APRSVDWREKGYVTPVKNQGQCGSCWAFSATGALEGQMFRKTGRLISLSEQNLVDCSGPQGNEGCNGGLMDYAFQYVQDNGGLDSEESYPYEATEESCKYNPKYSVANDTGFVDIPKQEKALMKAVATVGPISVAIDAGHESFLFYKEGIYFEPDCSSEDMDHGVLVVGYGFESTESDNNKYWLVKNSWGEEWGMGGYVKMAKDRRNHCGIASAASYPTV
inhibition (Cathepsin B (Bos taurus) [1]) [%],IC50 [2] [µM],inhibition [3] [%],inhibition [4] [%],inhibition (Cathepsin B (Bos taurus) [5]) [%],inhibition [6] [%],inhibition (Cathepsin B (Bos taurus) [7]) [%],SMILES
16.9,0.45,31.9,96.6,91.5,89.2,61.2,CCc1c(C(=O)N[C@@H](Cc2ccccc2)C(=O)C(N)=O)oc2ccccc2c1=O
0,2.48,12.7,95.8,58.2,83.8,18.6,Cc1c(C(=O)N[C@@H](Cc2ccccc2)C(=O)C(=O)NCc2ccccc2)oc2cc3c(cc2c1=O)OCCO3
0,5.69,2.1,71.2,42.6,17.5,0,Cc1c(C(=O)N[C@@H](Cc2ccccc2)C(=O)C(=O)NC(C)C)oc2ccccc2c1=O
0,0.53,10.1,98.3,82.1,78.9,49,Cc1c(C(=O)N[C@@H](Cc2ccccc2)C(=O)C(=O)NCCc2ccccc2)oc2ccccc2c1=O
21.5,8.73,54.2,99.1,79.9,87.7,55.4,NC(=O)C(=O)[C@H](Cc1ccccc1)NC(=O)c1cc(=O)c2ccccc2o1
14.4,0.24,22.4,98.1,91.5,81.5,63.2,Cc1c(C(=O)N[C@@H](Cc2ccccc2)C(=O)C(N)=O)oc2ccccc2c1=O
96,,100,100,100,100,96.6,CC(C)[C@H](NC(=O)OCc1ccccc1)C(=O)NC(C=O)Cc1ccccc1 (stereo partly drawn) (Cbz-Val-[ξF]-aldehyde)
0,0.72,8.1,95.6,67.9,65.3,21.3,Cc1c(C(=O)N[C@@H](Cc2ccccc2)C(=O)C(=O)NCc2ccccc2)oc2ccccc2c1=O

# Second part, the compound before the results:
SMILES,inhibition (Cathepsin B (Bos taurus) [1]) [%],IC50 [2] [µM],inhibition [3] [%],inhibition [4] [%],inhibition (Cathepsin B (Bos taurus) [5]) [%],inhibition [6] [%],inhibition (Cathepsin B (Bos taurus) [7]) [%]
Cc1c(C(=O)N[C@@H](Cc2ccccc2)C(=O)C(=O)NC(C)C)oc2cc3c(cc2c1=O)OCCO3,0,> 20,1.7,74.9,42.2,24.6,0
Cc1c(C(=O)N[C@@H](Cc2ccccc2)C(=O)C(=O)NCCN2CCOCC2)oc2cc3c(cc2c1=O)OCCO3,0,> 20,0,92,20.2,26.5,0
Cc1c(C(=O)N[C@@H](Cc2ccccc2)C(=O)C(N)=O)oc2cc3c(cc2c1=O)OCCO3,26.3,0.81,32.5,96.6,92.2,86.3,60.8
Cc1c(C(=O)N[C@@H](Cc2ccccc2)C(=O)C(=O)NCCN2CCOCC2)oc2ccccc2c1=O,0,8.17,0,69.6,23.9,9.6,0
Cc1c(C(=O)N[C@@H](Cc2ccccc2)C(=O)C(=O)NCCc2ccccc2)oc2cc3c(cc2c1=O)OCCO3,0,4.53,7.4,95.7,41.4,66.8,35.3
